Assay results from US20110318422A1, “TARGETED ACTIVE AGENT DELIVERY SYSTEM BASED ON CALCIUM PHOSPHATE NANOPARTICLES” (priority 2007, published 2011).
Where “and” joins values, the source holds several entries; their conditions need not be identical. Equal entries are not always repeated.

What was measured:
[1] = test system: A2780cis human ovarian carcinoma cell line; assay: In vitro cytotoxicity, CellTiter96 AQueous One proliferation assay (Example 1); assay type: cell-based; conditions: A2780cis cells; sample added to cells; Example 1 particles
Description: In one set of in vitro cytotoxicity activity studies, the cisplatin-resistant A2780cis human ovarian carcinoma cell line was used. A2780cis human ovarian carcinoma cell line (Sigma, 93112517) was cultured according to supplier's descriptions. IC50 values (50% inhibitory concentration) were determined with the CellTiter96® AQueous One (Promega) colorimetric proliferation assay. The CellTiter96® AQueous One (Promega) colorimetric proliferation assay was used to determine the IC50 value (50% inhibitory concentration) evaluated from 12 two-fold dilutions of: (a) cisplatin (200 μg cisplatin /mL) in 0.9% saline (free active agent), (b) 1.5 mg of conjugates in 1.75 ml PBS, (c) 1.5 mg of hydroxyapatite in 1.75 ml of cisplatin solution. Control wells containing the hydroxyapatite only were used since the hydroxyapatite interferes with the CellTiter96 assay. Absorbance values from the hydroxyapatite only were subtracted from the conjugate data in order to determine the IC50 values. The cytotoxicity assay was conducted as follows: twenty-four hours after seeding 2000 A2780cis cells in […] of media on 96 well plates, […] PBS, or PBS with drug or conjugates was added to the wells.

[2] = Lymph node accumulation after footpad injection (Pt by graphite furnace AAS); assay type: in vivo, BALB/c mice; conditions: 20 μl footpad injection; nodes at 30 min, 1, 4, 7 days
Description: Lymph node accumulation studies were conducted using nine BALB/c mice, 5-7 weeks old injected with 20 μl of calcium phosphate particle/cisplatin conjugate (40 mg/ml) in both rear footpads. Six control mice received 20 μl footpad injections of cisplatin solution only. Draining lymph nodes, as determined by lymphazurin injections (popliteal, inguinal, and lumbar) were collected at 30 min, 1 day, 4 day and 7 days and analyzed for Pt content by graphite furnace atomic absorption spectroscopy. Use of calcium phosphate particle/cisplatin conjugate leads to sustained elevated levels of cisplatin in the draining nodes.

[3] = test system: ME-180 tumors; assay: Chemoradiotherapy of intradermal ME-180 tumors in mice; assay type: in vivo, athymic Ncr-nu/nu mice; conditions: with single 8 Gy radiation; conjugate IT 10 mg/kg, cisplatin IP 7 mg/kg
Description: Chemoradiotherapy of ME-180 Tumors with intratumoral calcium phosphate particle/cisplatin conjugate was performed. Primary tumors were initiated on the right flank in seventy athymic Ncr-nu/nu mice, 5-7 weeks old, by intradermal injections of 2.25×10^6 ME-180 cells, a human cervical cancer line. Six treatment groups were established for the study and included an untreated control, 7 mg/kg intraperitoneal (IP) cisplatin, and intratumoral (IT) calcium phosphate particle/cisplatin conjugate at a dose of 10 mg/kg. These three treatment groups were repeated in combination with a single dose of radiation at 8 Gy (Varian 2100 C), for a total of six treatment groups. Mice were entered into treatment groups once the intradermal ME-180 tumors were 100 mm^3±10% in size. A minimum of 5 mice was placed into each group. The conjugate was injected via an 18-gauge needle directly into the intradermal tumor. Tumor length and width were measured daily and the volume determined (Tumor volume=(width)^2×length×0.4). Mouse weight was also recorded daily as weight loss is an indicator of cisplatin side effects. Statistical analysis, a one-way ANOVA and Newman-Kuels Comparison Test, was applied to the tumor volumes on day 15 after treatment.

[4] = test system: A2780cis human ovarian carcinoma cell line; assay: In vitro cytotoxicity, CellTiter96 AQueous One proliferation assay (Example 2); assay type: cell-based; conditions: two days exposure, conjugate loading 112 μg/mg, listed as free active agent
Description: For in vitro cytotoxicity activity studies, the cisplatin-resistant cell line was used: A2780cis human ovarian carcinoma cell line (Sigma, 93112517) and cultured according to supplier's descriptions. Briefly, cells were cultured in RPMI1640 medium, supplemented with 2 mM Glutamine and 10% Fetal Bovine Serum (FBS) in a humid atmosphere at 37° C. and 5% CO2. Cells were supplemented with 1 μm cisplatin to the culture media every 2-3 passages, post-attachment. […] Three days were necessary to achieve a cisplatin concentration high enough to obtain an IC50 value. […] To confirm that the particle conjugates were diluted evenly across the wells, measurements of the total Pt concentration in all the wells of the active agent master plate were made by AAS after dissolving the conjugate solutions in dilute HCl. […] Absorbance values were converted to IC50 values using the four parameter logistic equation: Y=(Amax-Amin)/1+(x/IC50)^n+Amin Eq. 2 where Y=observed absorbance • Amax=absorbance of control cells • Amin=absorbance of cells in presence of highest agent concentration • x=active agent concentration (μg/ml) • n=slope of curve Samples were analyzed for statistically significant differences using the Student's T-test (P<0.05).

## N.N.[Cl][Pt][Cl] [cisplatin]
[1]
  IC50 (50% inhibitory concentration): 6.07 ± 0.226 µg/mL
[2]
  duration of cisplatin levels in the draining popliteal node: barely detected after one day
[3]
  tumors completely regressed: ⅙
[4]
  IC50, direct addition study: 6.297 ± 0.43 µg/mL and 6.3 µg/mL
